Results from patent EP0565377B1, “Therapeutic agents for use in the treatment of Parkinson's Disease” (Kyowa Hakko Kogyo Co., Ltd., priority 1992, dated 1993).

Key:
[1] = test system: Parkinson's Disease Model in Mouse; assay: Effect on locomotor activity of Parkinson's disease model in mouse (MPTP-treated mice, Automex-II horizontal activity); format: in vivo, male C57BL/6 mice
Experimental: 1-Methyl-4-phenyl-1,2,3,6-tetrahydropyridine (MPTP) causes symptoms of Parkinson's disease in humans [Science, 219, 979 (1983)]. It is reported that an experimental Parkinson's disease model was obtained by administering MPTP to mice [Science, 224, 1451 (1984)]. If a compound is effective on the experimental Parkinson's disease model in mouse, the compound can be expected to have a therapeutic effect on Parkinson's disease.
The experiment was performed by using several groups of 7-weeks-old male C57BL/6 mice (weighing 20 to 21 g, Japan SLC), each group consisting of 8 mice. MPTP (Aldrich Chemical Co., Inc.) dissolved in a physiological saline solution (Otsuka Pharmaceutical Co., Ltd.) was intraperitoneally administered to each mouse once a day for five consecutive days at a dose of 30 mg/kg. A test compound was suspended in injectable distilled water (Otsuka Phamaceutical Co., Ltd.) containing Tween 80 [polyoxyethylene (20) sorbitan monooleate]. L-DOPA (Kyowa Hakko Kogyo Co., Ltd.) was suspended in 0.3% CMC (sodium carboxylmethylcellulose). Thirty minutes after the final MPTP administration, the test compound suspensions and the control suspension [injectable distilled water (Otsuka Pharmaceutical Co., Ltd.) containing Tween 80] containing no test compound were orally administered to separate groups of the mice (0.1 ml per 10 g of body weight). The amount of active movements (horizontal activity) of each mouse was measured by using Automex-II (Columbus Instruments International Corp.) for the period of 30 minutes starting 30 minutes after the administration of the test compound. The effect of the compounds was evaluated by comparing the average counts of the active movements of the test compound-administered groups with those of the control groups. A significant difference test was performed by using Student's t-test.

[2] = test system: Haloperidol-Induced Catalepsy; assay: Effect on haloperidol-induced catalepsy; format: in vivo, male ddY mice; settings: Table 4-1, test compound 10 mg/kg orally; for inhibition in vivo at 10 mg/kg: Mus musculus, po, 1 h, rate of decrease in total score based on control group, read-out: Remission Rate (%); for Number of the Animals Showing Remission: of 5 mice, catalepsy score not more than 4 points; for Total Score: total catalepsy score of 5 mice (25 points at the full), 0.3% CMC control 25
Experimental: The experiment was performed by using several groups of 5-weeks-old male ddY mice (weighing 22 to 24 g, Japan SLC), each group consisting of 5 mice. Haloperidol (Janssen Pharmaceutica) suspended in 0.3% CMC was intraperitoneally administered to each mouse at a dose of 1.0 mg/kg. Test compounds were suspended in 0.3% CMC or in injectable distilled water (Otsuka Pharmaceutical Co., Ltd.) containing Tween 80. L-DOPA (Kyowa Hakko Kogyo Co., Ltd.) and benserazide hydrochloride (Kyowa Hakko Kogyo Co., Ltd.) were suspended in 0.3% CMC. One hour after the haloperidol administration, the test compound suspensions and the control suspension [0.3% CMC or injectable distilled water (Otsuka Pharmaceutical Co., Ltd.) containing Tween 80] containing no test compound were orally administered to separate groups of the mice (0.1 ml per 10 g of body weight). One hour after the administration of the test compound, the forelimbs of each mouse and subsequently the hindlimbs of the same mouse were placed on a 4.5 cm-high, 1.0 cm-wide bar and catalepsy was estimated. All of the test compounds were orally administered at a dose of 10 mg/kg, and L-DOPA (100 mg/kg) and benserazide (25 mg/kg) were intraperitoneally administered together as a control experiment. The catalepsy score and the standard of judgment are shown below.
The effect of the compounds was evaluated by the total of the catalepsy scores of five mice in each group (25 points at the full). The groups wherein the total score was not more than 20 points were estimated to be effective. The number of the animals showing remission against catalepsy is the number of the mice for which the catalepsy score was not more than 4 points.

[3] = test system: dd-strain male mice; assay: Acute toxicity test (minimum lethal dose, oral); format: in vivo; settings: oral administration, mortality seven days after administration, three mice per group
Experimental: Test compounds were orally administered to groups of dd-strain male mice weighing 20±1 g, each group consisting of three mice. Seven days after the administration, minimum lethal dose (MLD) of each compound was determined by observing the mortality.

COc1cc(/C=C/c2nc3c(c(=O)n(C)c(=O)n3C)n2C)cc(OC)c1OC [Compound 2, (E)-8-(3,4,5-trimethoxystyryl)caffeine] was tested, and the “Amount of Active Movements (average count ± S.E.M)” value (“Amount of Active Movements” for short) ([1]; Table 3-1, test compound 10 mg/kg orally, 30 min count starting 30 min after dosing, normal control 1875 ± 77.7, MPTP control 207 ± 85.5) was 1134 ±267.0 count, the inhibition in vivo at 10 mg/kg [2] was 56% and the “Number of the Animals Showing Remission” value [2] was 5. For the same compound, the “Total Score” value [2] was 11 points and the “MLD” value [3] was over 300 mg/kg.
In the case of CCn1c(=O)c2c(nc(/C=C/c3cc(OC)c(OC)c(OC)c3)n2C)n(CC)c1=O [Compound 4, (E)-1,3-diethyl-7-methyl-8-(3,4,5-trimethoxystyryl)xanthine], the “Amount of Active Movements” value ([1]; Table 3-2, test compound 10 mg/kg orally, normal control 2185 ±156.2, MPTP control 38 ± 24.2) is reported as 961 ±164.7 count, the inhibition in vivo at 10 mg/kg [2] is reported as 20% and the “Number of the Animals Showing Remission” value [2] is reported as 4. For the same compound, the “Total Score” value [2] was 20 points and the “MLD” value [3] was over 300 mg/kg.
With C=CCn1c(=O)c2nc(/C=C/c3cc(OC)c(OC)c(OC)c3)[nH]c2n(CC=C)c1=O [Compound 11, (E)-1,3-diallyl-8-(3,4,5-trimethoxystyryl) xanthine] the “Amount of Active Movements” value ([1]; Table 3-5, test compound 40 mg/kg orally, normal control 2252 ±210.1, MPTP control 18 ± 8.4) was 20 ± 7.1 count, the inhibition in vivo at 10 mg/kg [2] was 20% and the “Number of the Animals Showing Remission” value [2] was 3. For the same compound, the “Total Score” value [2] was 20 points and the “MLD” value [3] was over 300 mg/kg.
